Test in all cases: E. coli hemG growth inhibition by herbicide, AtPPO1 variant
What all share (assay type): cell-based
Holding throughout (conditions): read-out: percentage growth inhibition

In experiment [1] the target is T1, AtPPO1 G481N (Arabidopsis thaliana, UniProt P55826, G481N).
T1 construct: expressed in transfected cells; host or cells: E. coli BL21(DE3) hemG, pET24a plasmid
T1 sequence (P55826 35-537 G481N): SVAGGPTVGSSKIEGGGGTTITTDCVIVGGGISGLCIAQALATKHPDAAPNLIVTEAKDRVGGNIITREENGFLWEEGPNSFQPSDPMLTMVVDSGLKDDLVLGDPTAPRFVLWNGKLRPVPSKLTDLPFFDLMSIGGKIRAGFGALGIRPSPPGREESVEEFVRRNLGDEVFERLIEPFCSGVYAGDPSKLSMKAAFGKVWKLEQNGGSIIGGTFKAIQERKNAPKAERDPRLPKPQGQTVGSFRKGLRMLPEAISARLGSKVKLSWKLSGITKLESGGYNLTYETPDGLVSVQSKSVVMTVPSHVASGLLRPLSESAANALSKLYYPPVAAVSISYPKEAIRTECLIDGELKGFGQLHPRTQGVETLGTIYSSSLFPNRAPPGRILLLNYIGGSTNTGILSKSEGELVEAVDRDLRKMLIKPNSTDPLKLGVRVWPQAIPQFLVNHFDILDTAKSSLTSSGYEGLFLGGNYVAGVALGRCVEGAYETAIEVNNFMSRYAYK
The gist of the method: (§1)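 AtPPO1 variants from a site-saturation library, codon-optimised and T7-driven in pET24a, were expressed in E. coli BL21(DE3) lacking hemG (hemG replaced by CmR). Growth in Terrific broth with 0.1 mM IPTG plus 6.25 ppm herbicide 0 or E, 0.78 ppm herbicide B, or DMSO was read as OD600 after 24 h at 37° C; inhibition was calculated against the DMSO culture.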

Experiment [2] concerns the target T2, AtPPO1 G481D (Arabidopsis thaliana, UniProt P55826, G481D).
T2 construct: expressed in transfected cells; host or cells: E. coli BL21(DE3) hemG, pET24a plasmid
T2 sequence (P55826 35-537 G481D): T1 sequence (P55826 35-537 G481N) with N447D
Summed up:
as §1

Experiment [3] concerns the target T3, AtPPO1 G510N (Arabidopsis thaliana, UniProt P55826, G510N).
T3 construct: expressed in transfected cells; host or cells: E. coli BL21(DE3) hemG, pET24a plasmid
T3 sequence (P55826 35-537 G510N): T1 sequence (P55826 35-537 G481N) with N447G, G476N
The gist of the method: as §1

Experiment [4] concerns the target T4, AtPPO1 K281E (Arabidopsis thaliana, UniProt P55826, K281E).
T4 construct: expressed in transfected cells; host or cells: E. coli BL21(DE3) hemG (hemG replaced by CmR), pET24a plasmid
T4 sequence (P55826 35-537 K281E): T1 sequence (P55826 35-537 G481N) with K247E, N447G
Summed up: as §1

The structures appear in SMILES notation. Positions count from the first letter of the chain named.

A word on the inhibition: it is the relative decrease from the control value, in per cent.

Take `C#CCN1C(=O)C(F)(F)Oc2cc(F)c(-n3c(=O)n(C)c(=S)n(C)c3=O)cc21` [Herbicide B, trifludimoxazin]: the inhibition at 0.78 ppm was 44% in experiment [1], 40% in experiment [2], 24% in experiment [3] and 37% in experiment [4].
As for `CCOC(=O)[C@]1(C)CC(c2cc(-n3c(=O)n(C)c(=S)n(C)c3=O)c(F)cc2Cl)=NO1` [Herbicide D, ethyl (5S)-3-[2-chloro-5-(3,5-dimethyl-2,6-dioxo-4-thioxo-1,3,5-triazinan-1-yl)-4-fluoro-phenyl]-5-methyl-4H-isoxazole-5-carboxylate], the inhibition at 6.25 ppm in experiment [1] was determined as 14%; in experiment [2], 20%; in experiment [3], 31%; in experiment [4], 33%.
As to `CC(C)N(C)S(=O)(=O)NC(=O)c1cc(-n2c(=O)cc(C(F)(F)F)n(C)c2=O)c(F)cc1Cl` [Herbicide E, saflufenacil], the inhibition at 6.25 ppm amounted to 4% in experiment [1], 16% in experiment [2], 70% in experiment [3] and 61% in experiment [4].

Values taken from US20260297542A1, “HERBICIDE RESISTANT PLANTS” (SYNGENTA CROP PROTECTION AG, priority 2023, published 2026).
